Results as given in PubChem BioAssay (NCI).
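Results reflect a 48-hour exposure of cells in 96-well plates to compound at five concentrations. TGI: total growth inhibition.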

What was measured:
Assay in all cases: NCI anticancer screen, dose series, 48 h
SW-620 colon = test system: SW-620 colon
HCT-116 colon = test system: HCT-116 colon
UACC-62 melanoma = test system: UACC-62 melanoma
SK-MEL-2 melanoma = test system: SK-MEL-2 melanoma
SN12C renal = test system: SN12C renal
DU-145 prostate = test system: DU-145 prostate
UO-31 renal = test system: UO-31 renal
OVCAR-5 ovarian = test system: OVCAR-5 ovarian
MDA-MB-435 = test system: MDA-MB-435
IGROV1 ovarian = test system: IGROV1 ovarian
HT29 colon = test system: HT29 colon
OVCAR-8 ovarian = test system: OVCAR-8 ovarian
LOX IMVI melanoma = test system: LOX IMVI melanoma
SR leukemia = test system: SR leukemia

| Structure (SMILES) | TGI (SW-620 colon) [µM] | TGI (HCT-116 colon) [µM] | TGI (UACC-62 melanoma) [µM] | TGI (SK-MEL-2 melanoma) [µM] | TGI (SN12C renal) [µM] | TGI (DU-145 prostate) [µM] | TGI (UO-31 renal) [µM] | TGI (OVCAR-5 ovarian) [µM] | TGI (MDA-MB-435) [µM] | TGI (IGROV1 ovarian) [µM] | TGI (HT29 colon) [µM] | TGI (OVCAR-8 ovarian) [µM] | TGI (LOX IMVI melanoma) [µM] | TGI (SR leukemia) [µM] |
| --- | --- | --- | --- | --- | --- | --- | --- | --- | --- | --- | --- | --- | --- | --- |
| C/C(=N\Nc1nc2ccccc2o1)c1cc2ccccc2cn1 | > 100 | 15.8 | 2.53 | 12.2 | 33.7 | 39.7 | 0.271 | 16.4 | > 43.4 |  |  |  |  |  |
| CC1=CC(=O)/C(=C/N2C(=O)CNC2=S)C(=O)O1 | > 100 | > 100 |  | > 100 | > 100 | > 100 | > 100 | > 100 | > 100 | > 100 | > 100 | > 100 | > 100 |  |
| COc1ccc(NC(=S)Nc2c(C)n(C)n(-c3ccccc3)c2=O)cc1 | > 100 | > 100 | > 100 |  |  | > 100 | > 100 | > 100 | > 100 | > 100 | > 100 | > 100 | > 100 |  |
| COc1ccc2c(c1)C=C(C(C)(C)C)NS2(=O)=O | > 100 | > 100 | > 100 | > 100 | > 100 |  | > 100 | > 100 |  | > 100 | > 100 | > 100 | > 100 | > 100 |
| S=C(S)N1CCN(c2ccccc2)CC1 | > 100 | > 100 |  | > 100 | > 100 | > 100 |  | > 100 | > 100 | > 100 | > 100 | > 100 | > 100 |  |
| C=CC(C)(C)n1cc(C2=C(O)C(=O)C(c3c(CC=C(C)C)[nH]c4ccccc34)=C(O)C2=O)c2ccccc21 | 13.5 | 5.59 | 1.18 | 3.41 | 3.6 | 5.46 | 1.9 | 10.1 | 2.38 | 2.45 | 7.36 | 4.57 | 5.38 |  |
| CCCCN1CCC(O)(c2cc(C(=O)O)[nH]c2-c2cc(C)no2)C1=O (configuration not stated) | > 100 | > 100 | > 100 | > 100 |  | > 100 | > 100 | > 100 | > 100 | > 100 | > 100 | > 100 |  |  |
| CCCCSC1=N/C(=C\c2ccc(N(C)C)cc2)C(Cl)=N1 | > 100 | > 100 | > 100 | > 100 | > 100 | > 100 | > 100 | > 100 | > 100 | > 100 | > 100 | > 100 | > 100 |  |
